Experimental data as given in US11352339B2 (MISSION THERAPEUTICS LIMITED, priority 2016, dated 2022).

What follows are compounds tested against USP30 (Homo sapiens (Human), UniProt Q70CQ3) (assay: USP30 Biochemical IC50 Assay). Details: fluorescence polarisation, TAMRA labelled peptide linked to ubiquitin; 30 min pre-incubation, read after 2 h; read-out: IC50 range.
USP30, sequence (Q70CQ3 57-517): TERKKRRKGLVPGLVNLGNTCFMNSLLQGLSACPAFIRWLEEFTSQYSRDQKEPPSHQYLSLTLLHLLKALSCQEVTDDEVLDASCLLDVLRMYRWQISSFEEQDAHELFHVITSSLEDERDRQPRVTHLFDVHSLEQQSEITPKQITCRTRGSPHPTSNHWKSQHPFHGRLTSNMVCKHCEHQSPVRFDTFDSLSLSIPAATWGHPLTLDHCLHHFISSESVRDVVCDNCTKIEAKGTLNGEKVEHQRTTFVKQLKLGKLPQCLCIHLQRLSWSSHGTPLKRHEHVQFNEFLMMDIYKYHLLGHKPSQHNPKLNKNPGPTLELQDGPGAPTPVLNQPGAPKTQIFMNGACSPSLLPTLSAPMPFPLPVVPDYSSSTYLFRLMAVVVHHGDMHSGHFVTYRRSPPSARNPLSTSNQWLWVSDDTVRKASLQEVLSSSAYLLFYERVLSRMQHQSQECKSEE
Outline: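 Enzyme preincubated 30 min at room temperature with compound, then 50 nM TAMRA-labelled isopeptide-linked ubiquitin–peptide substrate added. Fluorescence polarisation (ex 540/em 590 nm) read at once and after 2 h at room temperature; duplicate reactions.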
With N#CN1CCCC1c1noc(-c2cccc(-c3ccoc3)c2)n1 (centres unmarked) [Example 160, 2-(5-(3-(Furan-3-yl)phenyl)-1,2,4-oxadiazol-3-yl)pyrrolidine-1-carbonitrile] the IC50 was 100 to 1000 nM.
C[C@@H]1CN(C#N)C[C@H]1c1cc(-c2cccc(-c3ccccc3)c2)nn1C [Example 24] showed an IC50 of 100 to 1000 nM.
For COc1cc(-c2cccc(-c3nc(C4CCCN4C#N)no3)c2)ccn1 (centres unmarked) [Example 144, 2-(5-(3-(2-Methoxypyridin-4-yl)phenyl)-1,2,4-oxadiazol-3-yl)pyrrolidine-1-carbonitrile], the IC50 was 1000 to 10000 nM.
For N#CN1CCCC1c1noc(-c2cccc(-c3ccccc3)n2)n1 (centres unmarked) [Example 142, 2-(5-(6-Phenylpyridin-2-yl)-1,2,4-oxadiazol-3-yl)pyrrolidine-1-carbonitrile], the IC50 was 1000 to 10000 nM.
N#CN1CCCC1c1noc(-c2ccnc(-c3cccc(C(N)=O)c3)c2)n1 (centres unmarked) [Example 170, 3-(4-(3-(1-Cyanopyrrolidin-2-yl)-1,2,4-oxadiazol-5-yl)pyridin-2-yl)benzamide] showed an IC50 of 1000 to 10000 nM.
